# From PubChem BioAssay AID1259411 (Chemical Carcinogenesis Research Information System (CCRIS), 2018)
# Calls of active or inactive are those of the source. How the calls were made is not given here.
# Test system: rodent carcinogenicity bioassays, tumor incidence
# Assay: CCRIS carcinogenicity studies
# Conditions: Route: ORAL
# How it was run: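 NCI-built, expert-reviewed records of carcinogenicity and related test outcomes (mutagenicity, tumor promotion/inhibition) compiled from published and report sources, historical span 1985-2011, not updated.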
compound,measurement,setting,value
Cc1cccc(Nc2cc(Cl)nc(SCC(=O)O)n2)c1C,carcinogen call,"Species: MOUSE, Strain/Sex: STRAIN-CS/MALE, Dose: 0.1% (W/W) IN DIET FOR 6 MO THEN 0.05% IN DIET FOR 8.5 MO, Tumor Site: Type of Lesion: LIVER: HEPATOCELLULAR CARCINOMA",active; positive
same,carcinogen call,"Species: RAT, Strain/Sex: CD-1/MALE, Dose: 0, 50 PPM IN DIET FOR 43 WK FOLLOWED BY 25 PPM IN FEED FOR 61 WK (STUDY DURATION: 2 YR), Tumor Site: Type of Lesion: LIVER: ADENOMA, ADENOMA OR CARCINOMA, TESTES: LEYDIG CELL ADENOMA, PANCREAS: ACINAR CELL ADENOMA OR CARCINOMA, Tumor Site: Type of Lesion: LIVER: ADENOMA, ADENOMA OR CARCINOMA, TESTES: LEYDIG CELL ADENOMA, PANCREAS: ACINAR CELL ADENOMA OR CARCINOMA",active; positive
same,carcinogen call,"Species: RAT, Strain/Sex: F344/MALE, Dose: 0, 0.05, 0.10% IN DIET STARTED AT 2 MO OF AGE FOR STUDY DURATION (STUDY DURATION: 22 WK), Dose: 0, 0.05, 0.10% IN DIET STARTED AT 2 MO OF AGE FOR STUDY DURATION (STUDY DURATION: 22 WK), Tumor Site: Type of Lesion: LIVER: HEPATOCELLULAR CARCINOMA, HEPATOCELLULAR ADENOMA",active; positive
same,carcinogen call,"Species: RAT, Strain/Sex: F344/MALE, Dose: 0.00, 0.05, 0.10% IN DIET STARTED AT 15 MO OF AGE FOR STUDY DURATION (STUDY DURATION: 22 WK), Dose: 0.00, 0.05, 0.10% IN DIET STARTED AT 15 MO OF AGE FOR STUDY DURATION (STUDY DURATION: 22 WK), Tumor Site: Type of Lesion: LIVER: HEPATOCELLULAR CARCINOMA, HEPATOCELLULAR ADENOMA",active; positive
same,carcinogen call,"Species: RAT, Strain/Sex: F344/MALE, Dose: 0, 0.1% IN DIET FOR 22 WK (STUDY DURATION: 22 WK)",inactive; negative
same,carcinogen call,"Species: RAT, Strain/Sex: F344/MALE, Dose: 0, 0.1% IN DIET FOR 22 WK FOLLOWED BY BASAL DIET UNTIL TERMINATION AT 37, 52, OR 104 WK, RESPECTIVELY (STUDY DURATION: 3",inactive; negative
same,carcinogen call,"Species: RAT, Strain/Sex: F344/MALE, Dose: 0, 0.1% IN DIET FOR 37 WK (STUDY DURATION: 37 WK), Tumor Site: Type of Lesion: LIVER: HEPATOCELLULAR ADENOMA",active; positive
same,carcinogen call,"Species: RAT, Strain/Sex: F344/MALE, Dose: 0, 0.1% IN DIET FOR 37 WK FOLLOWED BY BASAL DIET UNTIL TERMINATION AT 52 OR 104 WK (STUDY DURATION: 52 OR 104 WK)",inactive; negative
same,carcinogen call,"Species: RAT, Strain/Sex: F344/MALE, Dose: 0, 0.1% IN DIET FOR 52 WK (STUDY DURATION: 52 WK), Tumor Site: Type of Lesion: LIVER: HEPATOCELLULAR ADENOMA, HEPATOCELLULAR CARCINOMA",active; positive
same,carcinogen call,"Species: RAT, Strain/Sex: F344/MALE, Dose: 0, 0.1% IN DIET FOR 52 WK FOLLOWED BY BASAL DIET UNTIL TERMINATION AT 104 WK (STUDY DURATION: 104 WK), Tumor Site: Type of Lesion: LIVER: HEPATOCELLULAR ADENOMA OR CARCINOMA",active; positive
same,carcinogen call,"Species: RAT, Strain/Sex: F344/MALE, Dose: 0, 0.1% IN DIET FOR 78 WK (STUDY DURATION: 78 WK), Tumor Site: Type of Lesion: LIVER: NEOPLASM",active; positive
same,carcinogen call,"Species: RAT, Strain/Sex: F344/MALE, Dose: 0.1% (W/W) IN DIET FOR 16 MO, Tumor Site: Type of Lesion: LIVER: HEPATOCELLULAR CARCINOMA",active; positive
same,carcinogen call,"Species: RAT, Strain/Sex: F344/MALE, Dose: 0.1% IN DIET FOR 11 WK FOLLOWED BY CONTROL DIET FOR DURATION OF STUDY (STUDY DURATION: 56 WK)",inactive; negative
same,carcinogen call,"Species: RAT, Strain/Sex: F344/MALE, Dose: 0.1% IN DIET FOR 43 WK (STUDY DURATION: 56 WK), Tumor Site: Type of Lesion: LIVER: HEPATOCELLULAR CARCINOMA",active; positive
same,carcinogen call,"Species: RAT, Strain/Sex: F344/MALE, Dose: 0.1% IN DIET FOR 54 WK (STUDY DURATION: 56 WK), Tumor Site: Type of Lesion: LIVER: HEPATOCELLULAR CARCINOMA",active; positive
same,carcinogen call,"Species: RAT, Strain/Sex: F344/MALE, Dose: 0.2% (W/W) IN DIET FOR 65 WK, Tumor Site: Type of Lesion: LIVER: HEPATOCELLULAR CARCINOMA",active; positive
